Results on 23 molecules are retold here after patent US20230022157A1 (Achillion Pharmaceuticals, Inc., priority 2018, published 2023).

As a reminder, the IC50 is the concentration that inhibits the measured activity by half.

The assay deals with T1, Human Factor D (Homo sapiens, UniProt P00746).
T1 construct: purified from human serum; purchased Complement Technology, Inc; host or cells: human serum (natural protein, not recombinant)
T1 sequence (P00746 26-253): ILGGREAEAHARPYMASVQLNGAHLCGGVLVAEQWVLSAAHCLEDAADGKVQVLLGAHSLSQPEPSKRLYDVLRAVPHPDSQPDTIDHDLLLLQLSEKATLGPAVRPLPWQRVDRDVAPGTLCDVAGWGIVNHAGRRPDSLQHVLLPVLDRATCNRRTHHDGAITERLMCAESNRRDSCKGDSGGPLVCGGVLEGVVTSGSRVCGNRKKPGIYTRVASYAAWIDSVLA
Kind of assay: Human Factor D Assay. The format is biochemical. Particulars: Human Factor D 80 nM, substrate Z-L-Lys-SBzl; Table 2; read-out: IC50 (Stars). Summed up:
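Serum-purified human factor D (80 nM final) preincubated 5 min at room temperature with test compound in 50 mM Tris, 1M NaCl, pH 7.5. Z-L-Lys-SBzl substrate and DTNB then added, each at 100 μM final. IC50 from nonlinear regression of reaction rate against compound concentration.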
As for `CC(=O)c1nn(CC(=O)N2[C@H](C(=O)NC(C)Cc3cccc(F)c3)C[C@@]3(C)C[C@@H]23)c2c(C)cc(-c3cnc(C)nc3)cc12` (stereo partly drawn) [Compound 187, (1R,3S,5R)-2-{2-[3-acetyl-7-methyl-5-(2-methylpyrimidin-5-yl)indazol-1-yl]acetyl}-N-[1-(3-fluorophenyl)propan-2-yl]-5-methyl-2-azabicyclo[3.1.0]hexane-3-carboxamide], the IC50 was under 1000 nM.
Then `CC(=O)c1nn(CC(=O)N2[C@H](C(=O)NC(C)Cc3ccoc3)C[C@@]3(C)C[C@@H]23)c2c(C)cc(-c3cnc(C)nc3)cc12` (stereo partly drawn) [Compound 181, (1R,3S,5R)-2-{2-[3-acetyl-7-methyl-5-(2-methylpyrimidin-5-yl)indazol-1-yl]acetyl}-N-[1-(furan-3-yl)propan-2-yl]-5-methyl-2-azabicyclo[3.1.0]hexane-3-carboxamide], with under 1000 nM; and `CC(=O)c1nn(CC(=O)N2[C@H](C(=O)Nc3nc(C(F)(F)F)ccc3C)C[C@@]3(C)C[C@@H]23)c2c(C)cc(-c3cnc4cc(C)nn4c3)cc12` [Compound 224, (1R,3S,5R)-2-(2-(3-acetyl-7-methyl-5-(2-methylpyrazolo[1,5-a]pyrimidin-6-yl)-1H-indazol-1-yl)acetyl)-5-methyl-N-(3-methyl-6-(trifluoromethyl)pyridin-2-yl)-2-azabicyclo[3.1.0]hexane-3-carboxamide], with under 1000 nM.
Then `CC(=O)c1cn(CC(=O)N2[C@H](C(=O)Nc3nc(Br)c(F)cc3C)C[C@@]3(C)C[C@@H]23)c2c(C)cc(-c3cnc(C(C)O)nc3)cc12` (some centres unmarked) [Compound 158], with under 1000 nM; and `CC(=O)c1nn(CC(=O)N2[C@H](C(=O)NC3CCCC4(C3)OCCO4)C[C@@]3(C)C[C@@H]23)c2c(C)cc(-c3cnc(C)nc3)cc12` (stereo partly drawn) [Compound 137, (1R,3S,5R)-2-{2-[3-acetyl-7-methyl-5-(2-methylpyrimidin-5-yl)indazol-1-yl]acetyl}-N-{1,4-dioxaspiro[4.5]decan-7-yl}-5-methyl-2-azabicyclo[3.1.0]hexane-3-carboxamide], with under 1000 nM; and `CC(=O)c1nn(CC(=O)N2[C@H](C(=O)N[C@@H]3CCCCC3(F)F)C[C@@]3(C)C[C@@H]23)c2c(C)cc(-c3cnc(C)nc3)cc12` [Compound 148, (1R,3S,5R)-2-{2-[3-acetyl-7-methyl-5-(2-methylpyrimidin-5-yl)indazol-1-yl]acetyl}-N-[(1R)-2,2-difluorocyclohexyl]-5-methyl-2-azabicyclo[3.1.0]hexane-3-carboxamide], with under 1000 nM.
To `CC(=O)c1nn(CC(=O)N2[C@H](C(=O)Nc3nc(Br)ccc3C)C[C@@]3(C)C[C@@H]23)c2c(C)cc(-c3cnc(CO)cn3)cc12` [Compound 127, (1R,3S,5R)-2-(2-(3-acetyl-5-(5-(hydroxymethyl)pyrazin-2-yl)-7-methyl-1H-indazol-1-yl)acetyl)-N-(6-bromo-3-methylpyridin-2-yl)-5-methyl-2-azabicyclo[3.1.0]hexane-3-carboxamide] belongs under 1000 nM; to `CC(=O)c1nn(CC(=O)N2[C@H](C(=O)Nc3nc(Br)ccc3C)C[C@@]3(C)C[C@@H]23)c2c(C)cc(-c3cnc([C@@H](C)O)nc3)cc12` (single isomer, unassigned) [Compound 142], under 1000 nM.
Consider `CC(=O)c1cn(CC(=O)N2[C@H](C(=O)Nc3nc(Br)ccc3C)C[C@@]3(C)C[C@@H]23)c2ccc(-c3cnc4cc(C)nn4c3)cc12` [Compound 202, (1R,3S,5R)-2-(2-(3-acetyl-5-(2-methylpyrazolo[1,5-a]pyrimidin-6-yl)-1H-indol-1-yl)acetyl)-N-(6-bromo-3-methylpyridin-2-yl)-5-methyl-2-azabicyclo[3.1.0]hexane-3-carboxamide], for which the IC50 was under 1000 nM.
Then `CC(=O)c1cn(CC(=O)N2[C@H](C(=O)Nc3ccc(F)c(Br)n3)C[C@@]3(C)C[C@@H]23)c2c(C)cc(-c3cnc(C)nc3)cc12` [Compound 194, (1R,3S,5R)-2-(2-(3-acetyl-7-methyl-5-(2-methylpyrimidin-5-yl)-1H-indol-1-yl)acetyl)-N-(6-bromo-5-fluoropyridin-2-yl)-5-methyl-2-azabicyclo[3.1.0]hexane-3-carboxamide], with under 1000 nM.
To `CC(=O)c1nn(CC(=O)N2C[C@H]3C[C@H]3[C@H]2C(=O)Nc2nc(Br)ccc2Cl)c2c(C)cc(-c3cnc(C(C)O)nc3)cc12` (some centres unmarked) [Compound 166] belongs under 1000 nM; to `CC(=O)c1cn(CC(=O)N2[C@H](C(=O)Nc3cncc(Br)n3)C[C@@]3(C)C[C@@H]23)c2c(C)cc(-c3cnc(CO)nc3)cc12` [Compound 77, (1R,3S,5R)-2-(2-(3-acetyl-5-(2-(hydroxymethyl)pyrimidin-5-yl)-7-methyl-1H-indol-1-yl)acetyl)-N-(6-bromopyrazin-2-yl)-5-methyl-2-azabicyclo[3.1.0]hexane-3-carboxamide], under 1000 nM.
For the molecule `COc1ncc(-c2cc3c(C(C)=O)cn(CC(=O)N4[C@H](C(=O)Nc5nc(C(F)(F)F)ccc5C)C[C@@]5(C)C[C@@H]45)c3c(C)n2)cn1` [Compound 201, (1R,3S,5R)-2-(2-(3-acetyl-5-(2-methoxypyrimidin-5-yl)-7-methyl-1H-pyrrolo[2,3-c]pyridin-1-yl)acetyl)-5-methyl-N-(3-methyl-6-(trifluoromethyl)pyridin-2-yl)-2-azabicyclo[3.1.0]hexane-3-carboxamide], the IC50 is under 1000 nM.
To `CC(=O)c1cn(CC(=O)N2[C@H](C(=O)Nc3cnc(C)c(Br)n3)C[C@@]3(C)C[C@@H]23)c2c(C)cc(-c3cnc(C)nc3)cc12` [Compound 160, (1R,3S,5R)-2-(2-(3-acetyl-7-methyl-5-(2-methylpyrimidin-5-yl)-1H-indol-1-yl)acetyl)-N-(6-bromo-5-methylpyrazin-2-yl)-5-methyl-2-azabicyclo[3.1.0]hexane-3-carboxamide] belongs under 1000 nM; to `CCCC(C)(C)CNC(=O)[C@@H]1C[C@@]2(C)C[C@H]2N1C(=O)Cn1nc(C(C)=O)c2cc(-c3cnc(C)nc3)cc(C)c21` [Compound 116, (1R,3S,5R)-2-{2-[3-acetyl-7-methyl-5-(2-methylpyrimidin-5-yl)indazol-1-yl]acetyl}-N-(2,2-dimethylpentyl)-5-methyl-2-azabicyclo[3.1.0]hexane-3-carboxamide], under 1000 nM.
In the case of `Cc1ncc(-c2cc3c(C(N)=O)nn(CC(=O)N4[C@H](C(=O)Nc5cncc(Br)n5)C[C@@]5(C)C[C@@H]45)c3c(C)n2)cn1` [Compound 92, 1-{2-[3-(6-Bromo-pyrazin-2-ylcarbamoyl)-5-methyl-2-aza-bicyclo[3.1.0]hex-2-yl]-2-oxo-ethyl}-7-methyl-5-(2-methyl-pyrimidin-5-yl)-1H-pyrazolo[3,4-c]pyridine-3-carboxylic acid amide], the IC50 is under 1000 nM.
To `CC(=O)c1nn(CC(=O)N2[C@H]3CC[C@H](C3)[C@H]2C(=O)Nc2nc(Br)ccc2C)c2c(C)cc(-c3cnc(CO)nc3)cc12` [Compound 100, (1S,3S,4R)-2-(2-(3-acetyl-5-(2-(hydroxymethyl)pyrimidin-5-yl)-7-methyl-1H-indazol-1-yl)acetyl)-N-(6-bromo-3-methylpyridin-2-yl)-2-azabicyclo[2.2.1]heptane-3-carboxamide] belongs under 1000 nM; to `C=CCC(Cc1ccccc1)NC(=O)[C@@H]1C[C@@]2(C)C[C@H]2N1C(=O)Cn1nc(C(C)=O)c2cc(-c3cnc(C)nc3)cc(C)c21` (stereo partly drawn) [Compound 174, (1R,3S,5R)-2-{2-[3-acetyl-7-methyl-5-(2-methylpyrimidin-5-yl)indazol-1-yl]acetyl}-5-methyl-N-(1-phenylpent-4-en-2-yl)-2-azabicyclo[3.1.0]hexane-3-carboxamide], under 1000 nM; to `Cc1ncc(-c2cc3c(C(N)=O)nn(CC(=O)N4[C@H](C(=O)Nc5cc(F)cc(Br)n5)C[C@@]5(C)C[C@@H]45)c3c(C)n2)cn1` [Compound 140, 1-(2-((1R,3S,5R)-3-((6-bromo-4-fluoropyridin-2-yl)carbamoyl)-5-methyl-2-azabicyclo[3.1.0]hexan-2-yl)-2-oxoethyl)-7-methyl-5-(2-methylpyrimidin-5-yl)-1H-pyrazolo[3,4-c]pyridine-3-carboxamide], under 1000 nM.
Regarding `CC(=O)c1cn(CC(=O)N2[C@H](C(=O)Nc3nc(C(F)(F)F)ccc3C)C[C@@]3(C)C[C@@H]23)c2c(CO)nc(-c3cnc(C)nc3)cc12` [Compound 207, (1R,3S,5R)-2-(2-(3-acetyl-7-(hydroxymethyl)-5-(2-methylpyrimidin-5-yl)-1H-pyrrolo[2,3-c]pyridin-1-yl)acetyl)-5-methyl-N-(3-methyl-6-(trifluoromethyl)pyridin-2-yl)-2-azabicyclo[3.1.0]hexane-3-carboxamide], the IC50 is under 1000 nM.
As to `CC(=O)c1nn(CC(=O)N2[C@H](C(=O)Nc3nc(C(F)(F)F)ccc3C)C[C@@]3(C)C[C@@H]23)c2c(C)cc(-c3cnc(C)nc3)cc12` [Compound 236, (1R,3S,5R)-2-(2-(3-acetyl-7-methyl-5-(2-methylpyrimidin-5-yl)-1H-indazol-1-yl)acetyl)-5-methyl-N-(3-methyl-6-(trifluoromethyl)pyridin-2-yl)-2-azabicyclo[3.1.0]hexane-3-carboxamide], the IC50 is under 1000 nM.
`CC(=O)c1nn(CC(=O)N2[C@H](C(=O)Nc3nc(Br)c(F)cc3C)C[C@@]3(C)C[C@@H]23)c2c(C)cc(-c3cnc(C(C)O)cn3)cc12` (stereo partly drawn) [Compound 204, (1R,3S,5R)-2-(2-(3-acetyl-5-(5-(1-hydroxyethyl)pyrazin-2-yl)-7-methyl-1H-indazol-1-yl)acetyl)-N-(6-bromo-5-fluoro-3-methylpyridin-2-yl)-5-methyl-2-azabicyclo[3.1.0]hexane-3-carboxamide]: the IC50 is under 1000 nM.
Then `CC(=O)c1nn(CC(=O)N2[C@H](C(=O)N[C@@H](C)C3CCCCC3)C[C@@]3(C)C[C@@H]23)c2c(C)cc(-c3cnc(C)nc3)cc12` [Compound 72, (1R,3S,5R)-2-(2-(3-Acetyl-7-methyl-5-(2-methylpyrimidin-5-yl)-1H-indazol-1-yl)acetyl)-N—((S)-1-cyclohexylethyl)-5-methyl-2-azabicyclo[3.1.0]hexane-3-carboxamide], with under 1000 nM.
